One series deals with Rattus norvegicus. The note with it: oral.
In another series the test system is Mus musculus. The note with it: chronic; duration: 103 weeks; oral; diet; mortality.
The next series has as its system Pontoscolex corethrurus. The conditions noted are these: acute; mortality.
The subject of another series is Daphnia magna. The conditions noted are these: acute; mortality.
Setting [1] is: chronic, duration: 103 weeks, diet, histopathology: neoplastic.

≈ marks a conversion by molar mass, not a printed value.

As to `CC(=O)O[C@@H]1C[C@H]2CC[C@]1(C)C2(C)C` [Isobornyl acetate], the NOAEL – broadly, the highest dose or exposure tested at which no adverse effect was seen – with Rattus norvegicus (subchronic, duration: 13 weeks, gavage, M/F, organ weight) turned out to be 15 mg/kg-day.
In the series with Rattus norvegicus (subchronic, duration: 13 weeks, diet, M/F, food consumption), `CC(=O)/C=C/C1C(C)=CCCC1(C)C` (stereo not drawn) [alpha-Ionone] yielded an NOAEL of 10 mg/kg-day.
Take `CC1CCC(C(C)C)C(O)C1` (stereo unspecified) [Menthol]: the NOAEL in the series on Mus musculus was 600 mg/kg-day; with Rattus norvegicus (setting [1]), 375 mg/kg-day.
The like results for `CC(=O)O[C@@H]1C[C@H](C)CC[C@H]1C(C)C` (racemic) [dl-Menthyl acetate] were, in that order, 600 mg/kg-day and 375 mg/kg-day.
`CCCCCC1C(=O)CCC1CC(=O)OC` (stereo unspecified) [Methyl dihydrojasmonate] showed an LC50 in the series on Pontoscolex corethrurus of 1430 mg/kg. The NOAEL with Rattus norvegicus (subchronic, duration: 13 weeks, diet, M/F, Sprague-Dawley, no effects) is 100 mg/kg-day.
Consider `CC(=O)/C=C/C1=C(C)CCCC1(C)C` [beta-Ionone], for which the NOAEL in the series on Rattus norvegicus (subchronic, duration: 13 weeks, diet, M/F, body weight) stood at 10 mg/kg-day.
For the molecule `CC(=O)OC1CCCCC1` [Cyclohexyl acetate], the LC50 in the series with Pontoscolex corethrurus was determined as 1150 mg/kg.
As to `CC(=O)/C=C/C1C(C)=CCC(C)C1(C)C` (stereo not drawn) [alpha-Irone], the LC50 with Daphnia magna is 0.513 mg/L (≈ 2.49 µM).
